Reference: PMC6857076 (Pharmacology Research & Perspectives, 2019)

Test system: JAK-dependent cytokine receptors
Experiment: Integrated modeling: calculated cytokine receptor inhibitory concentrations (ICxx)
Set-up: species or system human
Conditions: calculated ICxx at clinically meaningful doses, Figure 1
From the text: An integrated modeling approach was applied to determine cytokine receptor inhibition profiles. Whole blood IC50 values were converted to unbound values (IC50,u) using measured blood‐to‐plasma ratios and measured fu values, as shown in Equation 2:(2) IC50,u=IC50/blood:plasma ratio×fu

## CC[C@@H]1CN(C(=O)NCC(F)(F)F)C[C@@H]1c1cnc2cnc3[nH]ccc3n12 [Upadacitinib]
  Inhibition (ICxx) of JAK1/JAK2-mediated (IFNγ, G-CSF) and JAK2-mediated (TPO, IL-3, GM-CSF) cytokine receptors vs other JAK inhibitors: numerically greater
